In ChEMBL document CHEMBL3301546, “MMV Malaria Box yeast growth screening”:

Assays:
Format in all cases: functional
[1] = system: Saccharomyces cerevisiae; assay: (§1) MMV: Growth assays were conducted using the prototrophic S. cerevisiae strain JHY222. Each MMV compound (0.1 mM) was tested in rich media containing dextrose as a carbon source (Yeast Extract, Peptone, Dextrose; YPD). The growth rate in the presence of each MMV compound was calculated as follows: (i) the first 10 OD readings were averaged and subtracted from all OD readings of the corresponding curve to set the baseline of the growth curve to zero, and (ii) the area under the curve (AUC) was then calculated as the sum of all OD readings. […] A relative growth value was calculated as follows: AUC(DRUG) - AUC(DMSO)/AUC(DMSO); where AUC(DMSO) represents growth measured in a DMSO control well that was on the same microtiter plate of the drug-treated culture.
[2] = system: Saccharomyces cerevisiae; assay: as §1, with “minimal” for “rich”, “Nitrogen Base,” for “Extract, Peptone,”, “YNBD).” for “YPD).”
[3] = system: Saccharomyces cerevisiae; assay: as §1, with “minimal” for “rich”, “ethanol and glycerol” for “dextrose”, “as” for “as a”, “sources” for “source”, “Nitrogen Base, Ethanol, Glycerol; YNBEG).” for “Extract, Peptone, Dextrose; YPD).”

| Compound | Relative Growth [1] | Relative Growth [2] | Relative Growth [3] |
| --- | --- | --- | --- |
| CN1CCN(c2ccc(Nc3c4ccccc4nc4ccccc34)cc2)CC1 | 0.031 | 0.0237 | 0.1233 |
| O=C(Nc1ccc(Cl)c(Cl)c1)Nc1ccc(Cl)c(Cl)c1 | -0.0117 | 0.0087 | 0.0859 |
| CCN1CCCC1CNc1[nH]cnc2c3cc(Cl)ccc3nc1-2 (stereo not drawn) | -0.0942 | -0.0942 | -0.3246 |
| COc1ccc(-c2c(C)nn3c(N)c(C#N)cnc23)cc1OC | -0.0311 | -0.0079 | -0.7097 |
| N=c1n(CCN2CCCCC2)c2ccccc2n1CC(=O)c1ccc(Cl)c(Cl)c1 | -0.0413 | 0.1082 | 0.0494 |
| C[n+]1c2ccccc2nc2ccc(NCCO)cc21 | -0.1972 | 0.0053 | -0.0436 |
| Nc1nc(Nc2cccc(F)c2)nc2ccccc12 | -0.0359 | -0.0889 | -0.012 |
| Cc1sc(NC(=O)c2ccco2)c(C(c2cccnc2)N2CCC(Cc3ccccc3)CC2)c1C (stereo not drawn) | -0.0153 | 0.0125 | 0.0498 |
| COC(=O)c1ccc(Cl)c2c1C1C=CCC1C(c1cccc3ccccc13)N2 (stereo not drawn) | -0.0285 | 0.053 | 0.0199 |
| Cc1ccc(-c2cc3c(nn2)-c2ccccc2C3=O)cc1 | -0.0004 | -0.1641 | -0.6667 |
| CCN(CC)CCNc1ccnc2cc(Cl)ccc12 | -0.0501 | 0.0543 | 0.0209 |
| O=C(CCc1ccccc1)c1ccccc1OCC(O)CN1CCCCC1 (stereo not drawn) | -0.6663 | 0.0209 | -0.1402 |
| Cc1ccc(Nc2nc(-c3ccccn3)cs2)cc1 | 0.0194 | 0.0898 | 0.1504 |
| Cc1cc(Nc2ccc3ccccc3c2)n2ncnc2n1 | 0.0302 | 0.0095 | -0.024 |
| Cc1cc(NCCN2CCCCC2)c2ccc3ccccc3c2n1 | 0.101 | 0.1405 | 0.1901 |
| COc1ccc(-n2ccnc2SCC(=O)Nc2cc(C)ccc2C)c(OC)c1 | -0.0469 | -0.0529 | 0.0762 |
| CCN1CCN(Cc2ccc(NC(=O)c3cc4ccc5cccnc5c4[nH]3)cc2)CC1 | 0.0075 | 0.0158 | -0.0693 |
| COc1cc(C(=O)Nc2ccc(-c3nc4ccccc4[nH]3)cc2)cc(OC)c1OC | -0.1004 | -0.5664 | -0.2463 |
| O=C(O)C1Cc2c([nH]c3ccccc23)C(c2ccc(Cl)cc2Cl)N1 (stereo not drawn) | -0.035 | -0.0148 | 0.1085 |

| Compound | Relative Growth [1] | Relative Growth [2] | Relative Growth [3] |
| --- | --- | --- | --- |
| Cc1ccc(N2C(=O)C3C(C2=O)C2(c4ccccc4)C(=O)C3(c3ccccc3)C(c3ccccc3)=C2c2ccccc2)cc1 (stereo not drawn) | 0.0561 | 0.0552 | 0.0311 |
| Cc1ccc(C(=O)c2oc3ccc4c(C)cc(=O)oc4c3c2C)cc1 | -0.0457 | -0.0077 | -0.1519 |
| CCOC(=O)c1cn(CC)c2cc(N(C)CCc3ccc(OC)c(OC)c3)c(F)cc2c1=O | -0.6378 | -0.8912 | -0.9835 |
| O=C(CCl)NCCOc1ccc(Cl)cc1Cl | -0.0085 | 0.0391 | -0.0052 |
| O=[N+]([O-])c1ccc(C=NNc2nc3ccccc3[nH]2)cc1 | -0.6981 | -1.0011 | -1.0063 |
| CCOc1cc2c(cc1OCC)C(c1cc(OC)c(O)cc1Cl)NCC2 (stereo not drawn) | -0.0054 | 0.0876 | 0.0748 |
| CCOC(=O)c1c(NC(=O)c2ccccc2)sc2c(O)c(CN(CC)CC)ccc12 | -0.0008 | 0.0832 | 0.1716 |
| CCOC(=O)C1=C(c2ccccc2)N=c2sc(=Cc3cc(C)n(-c4ccc(F)cc4)c3C)c(=O)n2C1c1cccc(OC)c1OC (stereo not drawn) | -0.0436 | 0.0967 | 0.1067 |
| O=C(NC1CCN(Cc2ccccc2)CC1)c1cc(C(=O)NC2CCN(Cc3ccccc3)CC2)cc(C(=O)NC2CCN(Cc3ccccc3)CC2)c1 | -0.0223 | 0.0347 | -0.1727 |
| CCCN(CCC)CC(O)COc1ccccc1C(=O)Nc1ccccc1 (stereo not drawn) | -0.0395 | 0.0118 | 0.0655 |
| CC(=O)c1sc(NC(=O)Nc2ccc(C)cc2C)nc1C | -0.0731 | -0.0182 | 0.0857 |
| CCOc1ccc2nc(C)cc(Nc3ccc(N(C)C)cc3)c2c1.Cl | -0.2818 | -0.1579 | -0.2064 |
| CCOC(=O)c1c(C)n(-c2ccc(Cl)cc2)c2ccc(OC(=O)C=Cc3ccccc3)cc12 | -0.0067 | 0.0402 | 0.0277 |
| O=C(Nc1ccc(-c2nc3ccccc3[nH]2)cc1)c1ccc(Cl)c(Cl)c1 | 0.0053 | 0.027 | 0.0462 |
| Cc1cccc(Nc2nc(N)c3ccccc3n2)c1.Cl | -0.0941 | 0.1313 | 0.3952 |
| CCn1c(CN2CCN(Cc3ccccc3)CC2)nc2cc(NC(=O)c3cccs3)ccc21 | -0.0008 | -0.4968 | -0.226 |
| Cc1cc(N(C)C)nc(Nc2ccc(NC(=O)Nc3ccccc3)cc2)n1 | -0.0299 | -0.0678 | -0.3445 |
| c1ccc2cc3c(Nc4ccc(N5CCOCC5)cc4)ccnc3cc2c1 | 0.0179 | 0.0841 | 0.2097 |
| Cc1cc(C)c2c(c1)OCN(Cc1ccccc1Cl)C2 | -0.0627 | -0.0636 | -0.3214 |

| Compound | Relative Growth [1] | Relative Growth [2] | Relative Growth [3] |
| --- | --- | --- | --- |
| COc1cc(OC)c(N(C)C(=O)c2cc3c(s2)-c2ccccc2S(=O)(=O)C3)cc1Cl | -0.2124 | -0.1342 | -0.2428 |
| COc1ccccc1NC1=C(N2CCCCC2)C(=O)c2ccccc2C1=O | -0.0045 | 0.0574 | 0.1747 |
| Oc1c(C(Nc2ccccn2)c2cccc(Oc3ccccc3)c2)ccc2cccnc12 (stereo not drawn) | -0.9969 | 0.0038 | -0.1371 |
| CCOC(=O)c1cn(CC)c2cc(N3CCCCC3)c(F)cc2c1=O | -0.0482 | -0.2997 | -0.2149 |
| CNCCCNc1ccnc2cc(Cl)ccc12 | 0.1016 | 0.075 | 0.188 |
| Cc1cc(C=C2SC(=Nc3ccccc3)N(C3CCCC3)C2=O)c(C)n1-c1ccc(Cl)cc1 | 0.0207 | -0.1823 | -0.2078 |
| CCc1ccc(Nc2cc(C)c3ccc(O)cc3n2)cc1.Cl | -0.0071 | 0.1514 | 0.0748 |
| COc1ccc2c(=O)cc(C(Cl)(Cl)Cl)oc2c1 | 0.0032 | 0.0555 | -0.0182 |
| CSc1ccccc1C(=O)Nc1nc(-c2ccccn2)cs1 | -0.0643 | -0.0928 | -0.2282 |
| Br.CCn1c2c(c(=N)c3c1CCC3)CCCC2 | -0.135 | -0.0127 | -0.0042 |
| Cc1ccc2c(C)nc(Nc3nc(C)cc(-c4ccccc4)n3)nc2c1 | -0.9982 | -0.1458 | -0.009 |
| Cc1cc(Nc2ccc(Cl)cc2)n2nc(C(F)(F)F)nc2n1 | 0.0103 | 0.0221 | -0.0099 |
| Cc1ccc(N2C3c4ccccc4N(S(=O)(=O)c4ccc(C)cc4)C2c2ccccc2N3S(=O)(=O)c2ccc(C)cc2)cc1 | -0.0583 | -0.0282 | -0.3051 |
| Br.Cc1ccc(C)c(-c2csc(Nc3ccc(C)c(C)c3)n2)c1 | -0.11 | -0.0757 | -0.3216 |
| CCCc1c(CC)c(=N)c2ccccc2n1C | -0.0123 | -0.0316 | -0.1464 |
| CN(C)c1ccc(N=Cc2ccc(N3CCOCC3)cc2)cc1 | -0.0781 | 0.0616 | 0.068 |
| CCOC(=O)c1cnc2ccc(OC)cc2c1NCc1ccccc1 | -0.0244 | -0.0203 | -0.1303 |
| CCOC(=O)c1cnc2c(C)cc(C)cc2c1Nc1ccc(OC)c(OC)c1 | -0.1039 | 0.0948 | -0.222 |
